# Measured values published in patent publication US20260102451A1, “RUMINANT METHANE PRODUCTION INHIBITOR” (SDS BIOTECH K.K., priority 2022, published 2026).
# Experiments:
# Assay type in all cases: cell-based, Holstein milking cows
# [1] = tested on: rumen fluid culture; assay: Methane production measurement system using rumen culture (Example 1); conditions: for methane amount (mean ± SD): 39° C., 17 hours
# Experimental: Cashew nut shell liquid (CNSL) cold-pressed and extracted from cashew nut shells was obtained. For culture inoculum, rumen fluids (filtrates through quadruple gauzes) collected orally from Holstein milking cows 90 days or longer after calving were used. 4 mL of the rumen fluid and 6 mL of artificial saliva (McDougal's artificial saliva) were added, and the mixture was used for culturing. […] Similarly, DL-malic acid and fumaric acid were dissolved in ethanol and added such that they had desired concentrations in the solution. To equalize the effect of ethanol, only ethanol was added to a no-addition (control) area. Thereafter, the resulting products were left for several hours to vaporize ethanol, to which 50 mg of corn starch, 75 mg of concentrate feed powder, and 75 mg of timothy hay powder were added as culture substrates. […] To these test tubes, a total of 10 ml of diluted rumen fluid and artificial saliva in the above mixture ratio was added, and the tubes were incubated anaerobically in an incubator (39° C., 17 hours) with butyl rubber caps and plastic screw caps provided while nitrogen gas was blown into the head space. Each culturing was performed in triplicate. The concentrations of methane and acetic acid in volatile fatty acids were both analyzed by FID gas chromatography.
# [2] = tested on: rumen fluid culture; assay: Methane production measurement system using rumen culture (Example 3); conditions: for methane amount (mean ± SD): 39° C., 17 hours; for methane amount % reduction vs cont: ^ = increase
# Experimental: Cashew nut shell liquid (CNSL) cold-pressed and extracted from cashew nut shells was obtained. For culture inoculum, rumen fluids (filtrates through quadruple gauzes) collected orally from Holstein milking cows 90 days or longer after calving were used. 4 mL of the rumen fluid and 6 mL of artificial saliva (McDougal's artificial saliva) were added and the mixture was used for culturing. […] CNSL was dissolved in ethanol and added to a Hungate tube such that it had any concentration in the solution. […] To equalize the effect of ethanol, only ethanol was added to a no-addition (control) area. […] To these test tubes, a total of 10 mL of diluted rumen fluid and artificial saliva in the above mixture ratio was added, and the tubes were incubated anaerobically in an incubator (39° C., 17 hours) with butyl rubber caps and plastic screw caps provided while nitrogen gas was blown into the head space. Each culturing was performed in triplicate. The concentrations of methane and acetic acid in volatile fatty acids were both analyzed by FID gas chromatography.
# [3] = tested on: rumen fluid culture; assay: Methane production measurement system using rumen culture (Example 2); conditions: for methane amount (mean ± SD): 39° C., 17 hours
# Experimental: Cashew nut shell liquid (CNSL) cold-pressed and extracted from cashew nut shells was obtained. For culture inoculum, rumen fluids (filtrates through quadruple gauzes) collected orally from Holstein milking cows 90 days or longer after calving were used. 4 mL of the rumen fluid and 6 mL of artificial saliva (McDougal's artificial saliva) were added and the mixture was used for culturing. […] CNSL was dissolved in ethanol and added to a Hungate tube such that it had any concentration in the solution. […] To equalize the effect of ethanol, only ethanol was added to a no-addition (control) area. Thereafter, the resulting products were left for several hours to vaporize ethanol, to which 50 mg of corn starch, 75 mg of concentrate feed powder, and 75 mg of timothy hay powder were added as culture substrates. To these test tubes, a total of 10 ml of diluted rumen fluid and artificial saliva in the above mixture ratio was added, and the tubes were incubated anaerobically in an incubator (39° C., 17 hours) with butyl rubber caps and plastic screw caps provided while nitrogen gas was blown into the head space. Each culturing was performed in triplicate. The concentrations of methane and acetic acid in volatile fatty acids were both analyzed by FID gas chromatography.
# [4] = 1000 mg/L alone, ▴ = reduction, ^ = increase
Compound,acetate amount % vs cont ([1]; 500 mg/L alone),acetate amount (mean ± SD) ([1]; 500 mg/L alone),methane amount (mean ± SD) ([1]; 500 mg/L alone),acetate amount % vs cont ([2]; 500 mg/L alone),acetate amount (mean ± SD) ([2]; 500 mg/L alone),methane amount (mean ± SD) ([2]; 500 mg/L alone),acetate amount % vs cont ([2]; 1000 mg/L alone),acetate amount (mean ± SD) ([2]; 1000 mg/L alone),methane amount (mean ± SD) ([2]; 1000 mg/L alone),acetate amount % vs cont ([2]; 2000 mg/L alone),acetate amount (mean ± SD) ([2]; 2000 mg/L alone),methane amount (mean ± SD) ([2]; 2000 mg/L alone),methane amount % reduction vs cont ([2]; 2000 mg/L alone),acetate amount % vs cont ([3]; 500 mg/L alone),acetate amount (mean ± SD) ([3]; 500 mg/L alone),methane amount (mean ± SD) ([3]; 500 mg/L alone),acetate amount % vs cont ([3]; 1000 mg/L alone),acetate amount (mean ± SD) ([3]; 1000 mg/L alone),methane amount (mean ± SD) ([3]; 1000 mg/L alone),also measured
O=C(O)CC(O)C(=O)O (racemic) [DL-malic acid],123%,4.18 ± 0.11 g/L,6.22 ± 0.93 mL/tube,114%,4.18 ± 0.07 g/L,6.13 ± 0.92 mL/tube,102%,3.76 ± 0.27 g/L,6.13 ± 0.00 mL/tube,105%,3.85 ± 0.38 g/L,5.95 ± 0.70 mL/tube,▴3%,,,,,,,"acetate amount % vs cont ([1]; 1000 mg/L alone): 111%; acetate amount (mean ± SD) ([1]; 1000 mg/L alone): 3.76 ± 0.11 g/L; methane amount (mean ± SD) ([1]; 1000 mg/L alone): 5.47 ± 0.01 mL/tube; methane amount % reduction vs cont [1, 4]: ▴0%; improvement in the methane reduction rate ([1]; CNSL and garlic powder in combination, 500 to 1,000 mg/L DL-malic acid alone, 100 to 200 mg/L garlic powder): did not show significant improvement"
O=C(O)CC(O)(CC(=O)O)C(=O)O [citric acid],,,,99%,3.64 ± 0.70 g/L,6.53 ± 0.43 mL/tube,102%,3.76 ± 1.10 g/L,6.41 ± 1.49 mL/tube,128%,4.71 ± 0.15 g/L,5.45 ± 2.09 mL/tube,▴11%,115%,4.25 ± 0.16 g/L,5.12 ± 0.67 mL/tube,119%,4.42 ± 0.14 g/L,3.77 ± 1.64 mL/tube,"methane amount % reduction vs cont [3, 4]: ▴21%"
O=C(O)/C=C/C(=O)O [fumaric acid],114%,3.86 ± 0.12 g/L,5.94 ± 0.01 mL/tube,,,,,,,,,,,,,,,,,
CC(=O)C(=O)O [pyruvic acid],,,,,,,,,,,,,,109%,4.04 ± 0.31 g/L,5.58 ± 1.26 mL/tube,118%,4.36 ± 0.02 g/L,5.39 ± 0.04 mL/tube,
O=C(O)CCC(=O)O [succinic acid],,,,,,,,,,,,,,115%,4.26 ± 0.42 g/L,5.28 ± 1.76 mL/tube,106%,3.91 ± 0.58 g/L,6.24 ± 0.83 mL/tube,
